Results on 4 compounds are retold here after patent US11236056B2, “Small molecules and methods of reducing injuries caused by radiation or chemicals” (priority 2019, dated 2022).

Values after ≈ are worked out from the molar mass of the structure shown. Like-named read-outs stand apart in the source and are kept apart here.

The subject of series [1] is NIH-Swiss female mice. Kind of series: Radioprotection against TBI induced mortality, 30 min pretreatment (Example 2). Type of series: in vivo. As to conditions: 80 mg/kg i.p. 30 min prior to 7.5 Gy TBI. The method, then: NIH-Swiss female mice were divided into 5 groups (8 mice/group). Thirty min prior to 7.5 Gy TBI, mice were treated by i.p. injection with UTS-1401, -1402, and -1403 (80 mg/kg each) or vehicle, respectively. Mice in control group were not irradiated. Definition of “death” used in this study was when a mouse actually died or when a mouse lost 20% or more of its bodyweight.
FIG. 2 is a graph of the radioprotection of UTS-1401, -1402, and -1403 determined according to Example 2.

Series [2] concerns NIH-Swiss female mice. Kind of series: Drug dose-dependent radioprotection against TBI induced mortality, 30 min pretreatment (Example 3). Type of series: in vivo. Conditions: 25 or 75 mg/kg i.p. 30 min prior to 7.5 Gy TBI. The method, then:
NIH-Swiss female mice were divided into 4 groups (8 mice/group). Thirty min prior to 7.5 Gy TBI, mice were treated by i.p. injection with UTS-1401 (0, 2, or 6 mg/mL or 0, 25, or 75 mg/kg) or vehicle, respectively. Mice in control group were not irradiated. Definition of “death” used in this study was when a mouse actually died or when a mouse lost 20% or more of its bodyweight.
FIG. 3 is a graph of the dose-dependent effect of UTS-1401 on TBI induced mortality in NIH-Swiss mice determined according to Example 3.

For series [3], the system named is NIH-Swiss female mice. As to the kind of experiment: Radioprotection compared with amifostine, 45 min before or after TBI (Example 4). Format: in vivo. The method, then:
NIH-Swiss female mice were divided into 8 groups (10 mice/group). (A) Forty-five min prior to 7.5 Gy TBI, mice were treated by i.p. injection with UTS-1401 (75 mg/kg), amifostine (75 mg/kg) or vehicle, respectively. Mice in control group were not irradiated. (B) Same procedure as in (A) except that mice were treated by testing agents forty-five min after 7.5 Gy TBI.
FIG. 4 is a graph of the effects of UTS-1401 and amifostine on TBI induced in NIH-Swiss mice mortality administered 45 minutes before TBI determined according to Example 4.
FIG. 5 is a graph of the effects of UTS-1401 and amifostine on TBI induced in NIH-Swiss mice mortality administered 45 minutes after TBI determined according to Example 4.

In series [4] the test system is NIH Swiss male mice. Kind of series: Radioprotection, 24 hr pretreatment, male mice (Example 5). Type of series: in vivo. The method, then:
NIH Swiss male mice were studied for the radioprotective effects of UTS-1401 at 50, 100, and 150 mg/kg respectively by i.p. injection at 24 hr before TBI at 6.5, 7.5, and 8.5 Gy. […] These observations indicate that UTS-1401 is effective as a radioprotector for male NIH Swiss mice against TBI of both 7.5 and 8.5 Gy.
FIG. 6 is a graph of the effect of UTS-1401 on TBI induced mortality in NIH-Swiss mice administered at 100 mg/kg determined according to Example 5.

The test system of series [5] is NIH Swiss female mice. As to the kind of experiment: Radioprotection, 24 hr pretreatment, female mice (Example 5). Type of series: in vivo. How it is done: Only 8.5 Gy results are summarized here.
FIG. 7 is a graph of the effect of UTS-1401 on TBI induced mortality in NIH-Swiss mice administered at 150 mg/kg determined according to Example 5.

Series [6] relates to H9C2 cardiomyocytes. As to the kind of experiment: Protection against doxorubicin-induced damage on cardiomyocytes in vitro (MTT assay). Format: cell-based. Conditions: 30 min pretreatment before DOX, assayed 3 days later. How it is done:
Briefly, myocardiocytes H9C2 were cultured in high glucose DMEM with 10% bovine calf serum and 10,000 cells per well of cardiomyocytes were treated by DOX with and without the 30 min pretreatment of UTS-1401. The survival rates were assayed by MTT assay 3 days later.
FIG. 8 is a graph showing protection of UTS-1401 on H9C2 cardiomyocytes against DOX-induced determined according to Example 6.
A general note: Tetrazolium dyes change colour on reduction, which living cells bring about.

The nature of series [7]: Solubility determination of UTS-14 compounds. Format: physicochemical. Conditions: thermodynamic from solid. How it is done:
If the compound was not dissolved, more solvent was added and the solution was watched again after one day. This procedure was continued until the compound was completely dissolved, after which the solubility was calculated.

[8] abbreviates: 75 mg/kg i.p. 45 min after 7.5 Gy TBI.
Setting [9] is: 75 mg/kg i.p. 45 min before 7.5 Gy TBI.
The mark [10] stands for this setting: 50, 100, and 150 mg/kg 24 hr before 8.5 Gy TBI.
[11] abbreviates: water, rm temp, read-out: solubility in water.

In general, solubility refers to the dissolved amount per volume that the medium holds. As for `CSCc1cc(C(=O)O)no1` [UTS-1401], the “survival of irradiated mice” value in series [1] was “increased the survival”. The “survival rate of mice” value in series [2] is on record as “increased the survival rate of mice in a dose-dependent manner”; in series [3] (setting [8]) it was “significantly increased the survival rate”; in series [3] (setting [9]), “increased the survival rate”. Also, the “radioprotection as compared with amifostine” value in series [3] (75 mg/kg i.p. 45 min before or after 7.5 Gy TBI) is listed as “better radioprotection as compared with amifostine”. In addition, the survival rates entry in series [4] (50, 100, 150 mg/kg i.p. 24 hr before 7.5 Gy TBI) is recorded as “greatly increased”; in series [4] (50, 100, 150 mg/kg i.p. 24 hr before 8.5 Gy TBI), “greatly increased”. Also, in series [4] (50, 100, 150 mg/kg i.p. 24 hr before 7.5 and 8.5 Gy TBI), the “dose dependence of survival rates” value is reported as “drug-dose dependent”. The “day from which average body wt of surviving pretreated mice started to recover” value in series [4] (i.p. 24 hr before TBI) was about 20 days. Besides, the “dose dependence of radioprotective effects” value in series [5] (setting [10]) was “essentially the same for all 3 doses”. The “radioprotective effects / mortality” value in series [5] (setting [10]) was “significant radioprotective effects and reduced the mortality”. Moreover, in series [5] (24 hr before 8.5 Gy TBI), the optimal dose result is “around 50 mg/kg”. In addition, the “protection of cardiomyocytes (survival rates by MTT)” value in series [6] is “protected cardiomyocytes significantly”. In addition, the solubility in series [7] (saline or isotonic, saline, 37° C., read-out: solubility in saline at 37° C.) was 12 mg/mL (≈ 69.3 mM); in series [7] (setting [11]), about 9.5 mg/mL (≈ 54.9 mM).

For the compound `C[S+]([O-])Cc1cc(C(=O)O)no1` (stereo not shown) [UTS-1402], the “survival of irradiated mice” value in series [1] is recorded as “increased the survival”. Also, the solubility in series [7] (setting [11]) was about 16 mg/mL (≈ 84.6 mM).

Turning to `CS(=O)(=O)Cc1cc(C(=O)O)no1` [UTS-1403], the “survival of irradiated mice” value in series [1] is “increased the survival”. Moreover, the solubility was about 15.8 mg/mL in series [7] (Hank's Balanced Salt Solution (HBSS), saline or isotonic, read-out: solubility in Hank's Balanced Salt Solution (HBSS)) and about 9.1 mg/mL (≈ 44.3 mM) in series [7] (setting [11]).

Regarding `NCCCNCCSP(=O)(O)O` [amifostine, Amifostine, reference compound], the “survival rate of mice” value is given as “did not increase the survival rate” in series [3] (setting [8]) and “increased the survival rate” in series [3] (setting [9]).
